From PubChem BioAssay (NCI)
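How tested: cells in 96-well plates exposed to compound for 48 hours at five concentrations. Here, GI50 denotes the concentration required for 50% inhibition of growth. Definition used: TGI = concentration required for complete inhibition of growth.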

How the values were obtained:
Assay in all cases: NCI anticancer screen, dose series, 48 h
786-0 renal = test system: 786-0 renal
EKVX NSCLC = test system: EKVX NSCLC
MDA-MB-231 breast = test system: MDA-MB-231 breast
SK-MEL-5 melanoma = test system: SK-MEL-5 melanoma
SNB-19 CNS = test system: SNB-19 CNS
NCI-H460 lung = test system: NCI-H460 lung
RPMI-8226 leukemia = test system: RPMI-8226 leukemia
OVCAR-8 ovarian = test system: OVCAR-8 ovarian
IGROV1 ovarian = test system: IGROV1 ovarian
OVCAR-4 ovarian = test system: OVCAR-4 ovarian

## N#Cc1c(N)nc(NCc2ccccc2)c(C#N)c1-c1ccc(Cl)cc1Cl
786-0 renal
  GI50: > 100 µM
  TGI: > 100 µM
EKVX NSCLC
  GI50: > 100 µM
  TGI: > 100 µM
MDA-MB-231 breast
  GI50: > 100 µM
  TGI: > 100 µM
SK-MEL-5 melanoma
  GI50: > 100 µM
  TGI: > 100 µM
SNB-19 CNS
  GI50: > 100 µM
  TGI: > 100 µM
NCI-H460 lung
  GI50: > 69.4 µM
  TGI: > 100 µM
RPMI-8226 leukemia
  GI50: 33.5 µM
  TGI: > 100 µM
OVCAR-8 ovarian
  GI50: > 67 µM
  TGI: > 100 µM
IGROV1 ovarian
  GI50: 40.5 µM
  TGI: > 100 µM
OVCAR-4 ovarian
  GI50: 24.7 µM
  TGI: 99.3 µM

## O=c1oc2ccc(-c3ccc(F)cc3F)cc2c(=O)n1-c1ccc(Cl)c(C(F)(F)F)c1
786-0 renal
  GI50: 2.34 µM
  TGI: 5.68 µM
EKVX NSCLC
  GI50: 2.18 µM
  TGI: 7.54 µM
MDA-MB-231 breast
  GI50: 2.25 µM
  TGI: 6.93 µM
SK-MEL-5 melanoma
  GI50: 1.6 µM
  TGI: 3.05 µM
SNB-19 CNS
  GI50: 3.65 µM
  TGI: > 100 µM
NCI-H460 lung
  GI50: 2.96 µM
  TGI: > 100 µM
RPMI-8226 leukemia
  GI50: 2.1 µM
  TGI: 5.9 µM
OVCAR-8 ovarian
  GI50: 2.99 µM
  TGI: > 100 µM
IGROV1 ovarian
  GI50: 3.14 µM
  TGI: > 100 µM
OVCAR-4 ovarian
  GI50: 3.16 µM
  TGI: > 100 µM

## CC(=O)OC1CC[C@@]2(C)C(CC[C@]3(C)C2CC=C2[C@@H]4C(C)[C@H](C)CCC4(C)CCC23C)[C@@]1(C)C(=O)O (stereo not given in full)
786-0 renal
  TGI: 52.9 µM
EKVX NSCLC
  TGI: 43.3 µM
MDA-MB-231 breast
  TGI: 49.6 µM
SK-MEL-5 melanoma
  TGI: 35.5 µM
SNB-19 CNS
  TGI: 53.1 µM
NCI-H460 lung
  TGI: 71.6 µM
RPMI-8226 leukemia
  TGI: 64.8 µM
OVCAR-8 ovarian
  TGI: 70 µM
IGROV1 ovarian
  TGI: 46.9 µM
OVCAR-4 ovarian
  TGI: 66.7 µM

## Cc1cccc(NC(=O)/C=C/c2ccc([N+](=O)[O-])cc2)c1
786-0 renal
  TGI: > 51.2 µM
EKVX NSCLC
  TGI: > 56.5 µM
MDA-MB-231 breast
  TGI: > 52.8 µM
SK-MEL-5 melanoma
  TGI: > 51 µM
SNB-19 CNS
  TGI: > 47.9 µM
NCI-H460 lung
  TGI: > 64.5 µM
RPMI-8226 leukemia
  TGI: > 68.8 µM
OVCAR-8 ovarian
  TGI: > 53.7 µM
IGROV1 ovarian
  TGI: > 53.7 µM
OVCAR-4 ovarian
  TGI: > 56.3 µM

## Nc1ccccc1C#C/C=C\C#Cc1c(F)c(F)c(F)c(F)c1F
786-0 renal
  GI50: 12.3 µM
  TGI: 30.5 µM
EKVX NSCLC
  GI50: 29.7 µM
  TGI: 99.1 µM
MDA-MB-231 breast
  GI50: 2.76 µM
  TGI: 16.7 µM
SK-MEL-5 melanoma
  GI50: 20 µM
  TGI: 45 µM
SNB-19 CNS
  GI50: 26 µM
  TGI: 55.4 µM
NCI-H460 lung
  GI50: 24.4 µM
  TGI: > 100 µM
RPMI-8226 leukemia
  GI50: 1.25 µM
  TGI: 21.7 µM
OVCAR-8 ovarian
  GI50: 17.1 µM
  TGI: 36.7 µM
IGROV1 ovarian
  GI50: 10.9 µM
  TGI: 24.5 µM
OVCAR-4 ovarian
  GI50: 20.2 µM
  TGI: 96 µM

## Cc1cn(-c2ccc(S(C)(=O)=O)cc2)c(-c2ccc(Cl)cc2)n1
786-0 renal
  GI50: > 100 µM
  TGI: > 100 µM
EKVX NSCLC
  GI50: > 100 µM
  TGI: > 100 µM
MDA-MB-231 breast
  GI50: > 100 µM
  TGI: > 100 µM
SK-MEL-5 melanoma
  GI50: > 100 µM
  TGI: > 100 µM
SNB-19 CNS
  GI50: > 100 µM
  TGI: > 100 µM
NCI-H460 lung
  GI50: > 100 µM
  TGI: > 100 µM
RPMI-8226 leukemia
  GI50: > 100 µM
  TGI: > 100 µM
OVCAR-8 ovarian
  GI50: > 100 µM
  TGI: > 100 µM
IGROV1 ovarian
  GI50: > 100 µM
  TGI: > 100 µM
OVCAR-4 ovarian
  GI50: > 100 µM
  TGI: > 100 µM

## Cn1c(=S)c2[nH]c(SCCN3C(=O)c4ccccc4C3=O)nc2n(C)c1=O
786-0 renal
  TGI: > 100 µM
EKVX NSCLC
  TGI: > 100 µM
MDA-MB-231 breast
  TGI: > 100 µM
SK-MEL-5 melanoma
  TGI: > 100 µM
SNB-19 CNS
  TGI: > 100 µM
NCI-H460 lung
  TGI: > 100 µM
RPMI-8226 leukemia
  TGI: > 100 µM
OVCAR-8 ovarian
  TGI: > 100 µM
IGROV1 ovarian
  TGI: > 100 µM
OVCAR-4 ovarian
  TGI: > 100 µM

## O=S(=O)(Nc1ccc(F)c(Cl)c1)c1ccc(-c2cnc(C3CC3)o2)cc1
786-0 renal
  GI50: 0.495 µM
  TGI: 13.1 µM
EKVX NSCLC
  GI50: 0.609 µM
  TGI: 11.9 µM
MDA-MB-231 breast
  GI50: 0.727 µM
  TGI: 11 µM
SK-MEL-5 melanoma
  GI50: 0.316 µM
  TGI: 1.67 µM
SNB-19 CNS
  GI50: 0.389 µM
  TGI: 13.7 µM
NCI-H460 lung
  GI50: 0.377 µM
  TGI: 4.29 µM
RPMI-8226 leukemia
  GI50: 0.388 µM
  TGI: > 31.9 µM
OVCAR-8 ovarian
  GI50: 0.588 µM
  TGI: 14.6 µM
IGROV1 ovarian
  GI50: 0.418 µM
  TGI: 12.3 µM
OVCAR-4 ovarian
  GI50: 1.2 µM
  TGI: 11.7 µM
